pIC50: −log10 of the molar value.
Biological target: TNAP (Homo sapiens (Human), UniProt P05186)
Assay: TNAP (PPi) inhibition assay, pyrophosphate as substrate
Assay type: biochemical
In short: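 Enzyme source was conditioned serum-free medium from COS-1 cells transiently expressing tagged human TNAP, dialyzed against TBS with MgCl2/ZnCl2. Activity on natural substrate PPi at pH 7.4 read as liberated phosphate (Biomol Green).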

Row | pIC50 | SMILES
1 | 6.00 to 7.00 | COc1ccc(OC)c(S(=O)(=O)Nc2cncc(-c3ccc(OCc4ccccc4)cc3)c2)c1 [Example III-4, N-(5-(4-(Benzyloxy)phenyl)pyridin-3-yl)-2,5-dimethoxybenzenesulfonamide]
2 | > 7.00 | O=C(Oc1ccccc1)c1cncc(NS(=O)(=O)c2cc(Cl)ccc2OC(F)(F)F)c1 [Example XII-4, Phenyl 5-(5-chloro-2-(trifluoromethoxy)phenylsulfonamido)nicotinate]
3 | > 7.00 | O=C(OC1CCCCC1)c1cncc(NS(=O)(=O)c2cc(Br)ccc2OC(F)(F)F)c1 [Example XII-11, Cyclohexyl 5-(5-bromo-2-(trifluoromethoxy)phenylsulfonamido)nicotinate]
4 | < 6.00 | COc1ccc(Br)cc1S(=O)(=O)N(CCN(C)C)c1cnc2ccccc2c1 [Example VII-9, 5-Bromo-N-(2-(dimethylamino)ethyl)-2-methoxy-N-(quinolin-3-yl)benzenesulfonamide]
5 | > 7.00 | COc1ccc(OC(F)(F)F)cc1S(=O)(=O)Nc1cnc2ccccc2c1 [Example X-6, 2-Methoxy-N-(quinolin-3-yl)-5-(trifluoromethoxy)benzenesulfonamide]
6 | 6.00 to 7.00 | COc1ccc(C(=O)NCCN(C)C)cc1S(=O)(=O)Nc1cnc2ccccc2c1 [Example II-21, N-(2-Dimethylamino-ethyl)-4-methoxy-3-(quinolin-3-ylsulfamoyl)-benzamide]
7 | > 7.00 | O=S(=O)(Nc1cncc(-c2cncs2)c1)c1cc(Br)ccc1OC(F)(F)F [Example XI-26, 5-bromo-N-(5-(thiazol-5-yl)pyridin-3-yl)-2-(trifluoromethoxy)benzenesulfonamide]
8 | > 7.00 | COc1ccc(-c2cncc(NS(=O)(=O)c3cc(OC(F)(F)F)ccc3OC)c2)cc1 [Example XI-2, 2-Methoxy-N-(5-(4-methoxyphenyl)pyridin-3-yl)-5-(trifluoromethoxy)benzenesulfonamide]
9 | > 7.00 | COc1ccc(Br)cc1S(=O)(=O)Nc1cncc(-c2cccs2)c1 [Example III-74, 5-Bromo-2-methoxy-N-(5-(thiophen-2-yl)pyridin-3-yl)benzenesulfonamide]
10 | < 6.00 | COc1ccc(OC)c(S(=O)(=O)Nc2ccc(NCCN(C)C)nc2)c1 [Example VIII-14, N-(6-((2-(Dimethylamino)ethyl)amino)pyridin-3-yl)-2,5-dimethoxybenzenesulfonamide]
11 | < 6.00 | COc1ccc(OC)c(S(=O)(=O)N(Cc2ccccc2)c2cnc3ccccc3c2)c1 [Example VII-16, 2,5-Dimethoxy-N-benzyl-N-(quinolin-3-yl)benzenesulfonamide]
12 | > 7.00 | COc1ccc(Cl)cc1S(=O)(=O)Nc1cncc(C(=O)OC2CCCCC2)c1 [Example IV-9, Cyclohexyl 5-(5-chloro-2-methoxyphenylsulfonamido)nicotinate]
13 | < 6.00 | CNc1ccc(NS(=O)(=O)c2cc(OC)ccc2OC)cn1 [Example VIII-6, 2,5-Dimethoxy-N-(6-methylamino-pyridin-3-yl)-benzenesulfonamide]
14 | > 7.00 | COc1ccc(Br)cc1S(=O)(=O)Nc1cncc(-c2cscn2)c1 [Example III-86, 5-Bromo-2-methoxy-N-(5-(thiazol-4-yl)pyridin-3-yl)benzenesulfonamide]
15 | > 7.00 | COc1ccc(OC(F)(F)F)cc1S(=O)(=O)Nc1cncc(-c2cscn2)c1 [Example XI-30, 2-Methoxy-N-(5-(thiazol-4-yl)pyridin-3-yl)-5-(trifluoromethoxy)benzenesulfonamide]
16 | > 7.00 | O=S(=O)(Nc1cncc(-c2ccco2)c1)c1cc(Cl)ccc1OC(F)(F)F [Example XI-12, 5-Chloro-N-(5-(furan-2-yl)pyridin-3-yl)-2-(trifluoromethoxy)benzenesulfonamide]
17 | > 7.00 | COc1ccc(OC)c(S(=O)(=O)Nc2cncc(-c3ccco3)c2)c1 [Example III-67, N-(5-(Furan-2-yl)pyridin-3-yl)-2,5-dimethoxybenzenesulfonamide]
18 | > 7.00 | COc1ccc(OC)c(S(=O)(=O)Nc2cncc(-c3cscn3)c2)c1 [Example III-85, 2,5-Dimethoxy-N-(5-(thiazol-4-yl)pyridin-3-yl)benzenesulfonamide]
19 | > 7.00 | CCCOC(=O)c1cncc(NS(=O)(=O)c2cc(OC(F)(F)F)ccc2OC)c1 [Example XII-16, Propyl 5-(2-methoxy-5-(trifluoromethoxy)phenylsulfonamido)nicotinate]
20 | > 7.00 | COc1ccc(Br)cc1S(=O)(=O)Nc1cnc2ccc(C(N)=O)cc2c1 [Example IX-6, 3-(5-Bromo-2-methoxy-benzenesulfonylamino)-quinoline-6-carboxylic Acid Amide]
21 | < 6.00 | COc1ccc(OC)c(S(=O)(=O)Nc2ccc(N3CCN(C)CC3)nc2)c1 [Example VIII-20, 2,5-Dimethoxy-N-[6-(4-methyl-piperazin-1-yl)-pyridin-3-yl]-benzenesulfonamide]
22 | > 7.00 | COc1ccc(-c2cncc(NS(=O)(=O)c3cc(Cl)ccc3OC)c2)c(OC)c1 [Example III-57, 5-Chloro-N-(5-(2,4-dimethoxyphenyl)pyridin-3-yl)-2-methoxybenzenesulfonamide]
23 | < 6.00 | COc1ccc(OC)c(S(=O)(=O)Nc2ccnn2C)c1 [Example V-12, 2,5-Dimethoxy-N-(2-methyl-2H-pyrazol-3-yl)-benzenesulfonamide]
24 | > 7.00 | COC(=O)c1ccc(-c2cncc(NS(=O)(=O)c3cc(Br)ccc3OC)c2)cc1 [Example III-29, 4-[5-(5-Bromo-2-methoxy-benzenesulfonylamino)-pyridin-3-yl]-benzoic Acid Methyl Ester]
25 | > 7.00 | COc1ccc(Br)cc1S(=O)(=O)Nc1cncc(-c2cncs2)c1 [Example III-83, 5-Bromo-2-methoxy-N-(5-(thiazol-5-yl)pyridin-3-yl)benzenesulfonamide]

Further lines, the compound ahead of its results:

Row | SMILES | pIC50
26 | COC(=O)c1cncc(NS(=O)(=O)c2cc(Br)ccc2OC)c1 [Example IV-1, Methyl 5-(5-bromo-2-methoxyphenylsulfonamido)nicotinate] | > 7.00
27 | COc1ccc(OC)c(S(=O)(=O)Nc2cnc3ccc(C(=O)NC4CC4)cc3c2)c1 [Example IX-13, 3-(2,5-Dimethoxy-benzenesulfonylamino)-quinoline-6-carboxylic Acid Cyclopropylamide] | 6.00 to 7.00
28 | CCNC(=O)c1cncc(NS(=O)(=O)c2cc(Br)ccc2OC)c1 [Example IV-18, 5-(5-Bromo-2-methoxyphenylsulfonamido)-N-ethylnicotinamide] | 6.00 to 7.00
29 | O=S(=O)(Nc1cncc(-c2ccc(OC(F)(F)F)cc2)c1)c1cc(Cl)ccc1OC(F)(F)F [Example XI-3, 5-Chloro-2-(trifluoromethoxy)-N-(5-(4-(trifluoromethoxy)phenyl)pyridin-3-yl)benzenesulfonamide] | 6.00 to 7.00
30 | COc1ccc(OC)c(S(=O)(=O)Nc2cnccn2)c1 [Example V-23, 2,5-Dimethoxy-N-pyrazin-2-yl-benzenesulfonamide] | < 6.00
31 | COc1ccc(-c2ccoc2)cc1S(=O)(=O)Nc1cccnc1 [Example I-9, 5-Furan-3-yl-2-methoxy-N-pyridin-3-yl-benzenesulfonamide] | 6.00 to 7.00
32 | O=S(=O)(Nc1cncc(-c2ncccn2)c1)c1cc(Cl)ccc1OC(F)(F)F [Example XI-23, 5-chloro-N-(5-(pyrimidin-2-yl)pyridin-3-yl)-2-(trifluoromethoxy)benzenesulfonamide] | < 6.00
33 | COc1ccc(Cl)cc1S(=O)(=O)Nc1cncc(-c2cnn(C)c2)c1 [Example III-90, 5-Chloro-2-methoxy-N-(5-(1-methyl-1H-pyrazol-4-yl)pyridin-3-yl)benzenesulfonamide] | > 7.00
34 | COc1ccc(-c2ccsc2)cc1S(=O)(=O)Nc1cnc2ccccc2c1 [Example II-8, 2-Methoxy-N-quinolin-3-yl-5-thiophen-3-yl-benzenesulfonamide] | < 6.00
35 | COc1ccc(Br)cc1S(=O)(=O)Nc1cncc(-c2ccc(C)cc2)c1 [Example III-11, 5-Bromo-2-methoxy-N-(5-p-tolyl-pyridin-3-yl)-benzenesulfonamide] | 6.00 to 7.00
36 | COCCNC(=O)c1ccc(OC)c(S(=O)(=O)Nc2cccnc2)c1 [Example I-21, 4-Methoxy-N-(2-methoxy-ethyl)-3-(pyridin-3-ylsulfamoyl)-benzamide] | < 6.00
37 | COc1ccc(OC)c(S(=O)(=O)Nc2cnc3ccc(C(=O)NC4CCCCC4)cc3c2)c1 [Example IX-14, 3-(2,5-Dimethoxy-benzenesulfonylamino)-quinoline-6-carboxylic Acid Cyclohexylamide] | > 7.00
38 | COc1ccc(Cl)cc1S(=O)(=O)Nc1cncc(-c2ccc(C(F)(F)F)cc2)c1 [Example III-15, 5-Chloro-2-methoxy-N-(5-(4-(trifluoromethyl)phenyl)pyridin-3-yl)benzenesulfonamide] | 6.00 to 7.00
39 | COc1ccc(Br)cc1S(=O)(=O)Nc1cncc(C(=O)Nc2ccccc2)c1 [Example IV-23, 5-(5-Bromo-2-methoxyphenylsulfonamido)-N-phenylnicotinamide] | 6.00 to 7.00
40 | COC(=O)c1cncc(NS(=O)(=O)c2cc(OC(F)(F)F)ccc2OC)c1 [Example XII-15, Methyl 5-(2-methoxy-5-(trifluoromethoxy)phenylsulfonamido)nicotinate] | 6.00 to 7.00
41 | CNC(=O)c1cncc(NS(=O)(=O)c2cc(OC(F)(F)F)ccc2OC)c1 [Example XII-20, 5-(2-Methoxy-5-(trifluoromethoxy)phenylsulfonamido)-N-methylnicotinamide] | 6.00 to 7.00
42 | O=S(=O)(Nc1cncc(-c2ccc(F)cc2)c1)c1cc(Br)ccc1OC(F)(F)F [Example XI-9, 5-Bromo-N-(5-(4-fluorophenyl)pyridin-3-yl)-2-(trifluoromethoxy)benzenesulfonamide] | 6.00 to 7.00
43 | COc1ccc(Br)cc1S(=O)(=O)Nc1cncc(-c2ccccc2C)c1 [Example III-38, 5-Bromo-2-methoxy-N-(5-(o-tolyl)pyridin-3-yl)benzenesulfonamide] | 6.00 to 7.00
44 | CCOC(=O)c1cncc(NS(=O)(=O)c2cc(Cl)ccc2OC)c1 [Example IV-7, Ethyl 5-(5-chloro-2-methoxyphenylsulfonamido)nicotinate] | > 7.00

Reference: patent US10370333B2 (Sanford Burnham Prebys Medical Discovery Institute, priority 2012, dated 2019)
